Experimental data: publication PMC8868400, “Structure–Activity Relationships and Transcriptomic Analysis of Hypoxia-Inducible Factor Prolyl Hydroxylase Inhibitors” (Antioxidants, 2022)
“And” between values parts separate entries of the source, which are not always exact repeats. Equal entries are not always repeated. “Also recorded” adds a separate entry of the source. Where two headings read alike, the source gives them in different places.

Legend:
[1] = system: HIF1 ODD-luc reporter (intracellular HIF PHD), HIF1 ODD-luc/SH-SY5Y cell line; assay: HIF1 ODD-luc reporter assay; format: cell-based, human; settings: for Potency in HIF1 ODD-luc reporter assay (in words, comparative) / IC50: SH-SY5Y, 3 h incubation; for IC50: read-out: IC50 of HIF1 ODD-luc reporter activation; for Interference of free iron with reporter activation: cells loaded with ferrous sulfate 20 min before drug
Description: The reporter assay on the HIF1 ODD-luc/SH-SY5Y cell line was performed as described in [10]. Drugs were freshly prepared as 10 mM stock solutions in DMSO, and right before the experiment were diluted to 50×-fold to the final concentration in the well, so each well with 100 μL medium was inoculated with 2 μL of the drug solution. Cells were incubated for 3 h and then lysed and assayed for luciferase activity. To evaluate the effect of iron, the cells were loaded with the corresponding concentrations of ferrous sulfate in the medium for 20 min before the drug’s addition. All experiments were performed in triplicate. The fold activation with respect to the background luminescence in the presence 2 μL DMSO aliquot was plotted against drug concentrations. The results are shown as average ± SD.
The HIF1 ODD-luc reporter assay employs a cell line stably expressing a reporter vector providing the continuous production of an oxygen-dependent domain of HIF1α fused via its C-terminus to N-terminus of firefly luciferase. The steady-state level of the fusion protein depends on the ratio of the rates of its production (pcmv promoter) and degradation upon hydroxylation, binding to VHL and proteasomal degradation. […] Enzyme inhibition results in an immediate response in the form of luciferase fusion accumulation. The performance of the fusion reporter is equivalent to monitoring the actual fate of intracellular HIFs upon enzyme inhibition. […] However, both vadadustat and roxadustat worked in a very high micromolar range (IC50 above 30 μM). […] The use of high concentrations of the αKG mimetic drugs to overcome the competition from the intracellular αKG may result in targeting other αKG-dependent pathways that are unrelated to αKG-dependent dioxygenases, such as kynurenine-oxoglutarate transaminase and αKG dehydrogenase E1. In fact, DMOG is known to inhibit the αKG dehydrogenase complex and oxygen consumption by mitochondria. This plausible break in specificity could be a reason for concerns on the safety of HIF PHD inhibitor drugs in comparison with the use of recombinant EPO [17].

SH-SY5Y cells [2] = assay: Oxygen-glucose deprivation (OGD) model, MTT viability; format: cell-based, human; settings: 24 h pretreatment
Description: (§1) For oxygen-glucose deprivation (OGD) studies, 40,000 SH-SY5Y cells were plated in each well of 96-well plates. After overnight incubation, cells were treated with 1 and 3 μM concentrations of drugs for 24 h prior to OGD, at the onset of OGD, and at the onset of reperfusion. The compounds’ toxicity at the 1, 5, and 8 μM concentrations was assessed at 48 h. Oxygen glucose deprivation was performed as follows. The medium was replaced with DMEM containing no glucose, and then the cells were transferred to a sealed hypoxic chamber with 5% CO2-95% N2 atmosphere for 2 h. After 2 h incubation, the cells were removed from the hypoxic chamber and resupplied with a regular growth media for reperfusion/recovery. After 24 h incubation, cell viability was quantified using an MTT (4,5-dimethylthiazol-2-yl)-2,5-diphenyltetrazolium bromide, Sigma) assay.
The oxygen deprivation model (OGD) was performed using the human neuroblastoma SH-SY5Y cell line. […] The branched oxyquinoline drugs were added either 24 h before the onset of OGD, at the onset of ischemia induced by OGD insult, or with the reperfusion media at the end of OGD, as described in Methods and shown in Figure 6a.

SH-SY5Y cell line = assay: Transcriptomic microarray analysis (Gene Chip Human Transcriptome Array 2.0); format: cell-based; settings: for Number of downregulated genes / Number of upregulated genes: 0.5 mM DMOG, 30 μM roxadustat, 2 μM oxyquinolines; for Downregulated genes in common with hypoxia / Upregulated genes in common with hypoxia: hypoxia 2 h + 5 h; for Suppression of ATF4 signaling pathway: heatmap
Description: Transcriptomic microanalysis was performed as described in [12]. The human neuroblastoma SH-SY5Y cell line was grown on DMEM/F12 (Paneco Ltd., Moscow, Russia) containing 10% FBS (Thermo Fisher Scientific Inc., Waltham, MA, USA), and the cells were plated in 6-well plates (TPP, Russia) at a cell/well density of 500,000 the day before the drug treatment. The drugs—2 μM oxyquinoline(s), 30 μM (roxadustat), and 0.5 mM DMOG—were added to the cells in triplicate, and the cells were incubated for 5 h. The control wells contained 4 μL DMSO. The hypoxic conditions were created by incubation in 1% O2, 5% CO2, and 94% N2 atmosphere for 2 h (the medium was incubated under the same conditions for 16 h before addition to the cells). After 2 h hypoxia, the cells were returned to the original incubation conditions in a CO2 incubator and kept for another 5 h. After incubation, the cells were lysed with the Qiazol reagent (Qiagen N.V., Venlo, The Netherlands). The RNA was isolated using the RNeasy Micro Kit (Qiagen); the qualitative and quantitative analysis of the RNA was performed as described earlier. The RNA integrity number (RIN) values for all the samples were above 9.5. All steps of the sample preparation, hybridization, washing, staining, and microchip scanning were performed as described before. The mRNA expression profile was analyzed using the Gene Chip Human Transcriptome Array 2.0 (Thermo Fisher Scientific Inc., Waltham, MA, USA). The CEL files obtained during microchip scanning were treated with the Transcriptome Analysis Console 2.0 application (Thermo Fisher Scientific-Affymetrix, Santa Clara, CA, USA). Unannotated probe sets were excluded from the analysis. The results obtained were statistically processed using the TAC 4.0 software (Thermo Fisher Scientific). The statistical reliability for the differences in the expression levels between the intact cells and cells treated with the studied compounds was evaluated using the monofactorial analysis of variance (ANOVA) with the Benjamini–Hochberg correction. The significance threshold was 0.05.

[3] = set-up: method as in PMID 20416509; settings: estimated; read-out: KD of iron chelation; cited from earlier work
SH-SY5Y cells [4] = assay: Compound toxicity at 48 h incubation without OGD; format: cell-based, human; settings: 8 μM
Description: as §1

[5] = 5 h treatment, 1.5-fold cut-off
[6] = 5 h treatment, 1.5-fold cut-off, listed as 570-0720
[7] = 5 h treatment, 1.5-fold cut-off, listed as FG

## Cc1ccnc(NC(c2ccc(C(C)(C)C)cc2)c2cc(Cl)c3cccnc3c2O)c1 (stereo not shown) [5-chloro-neuradapt]
[1]
  Potency in HIF1 ODD-luc reporter assay (in words, comparative): almost as active as the original compound

## Cc1ccnc(NC(c2ccc(C(C)(C)C)cc2)c2ccc3cccnc3c2O)c1 (stereo not shown) [4896-3212]
[1]; Homo sapiens, 3 h
  IC50: 1000 nM
[1]
  Potency in HIF1 ODD-luc reporter assay (in words, comparative): submicromolar IC50 values
  IC50: < 1000 nM
  Interference of free iron with reporter activation: interference of free iron with the reporter activation

## Cc1ccnc(NC(c2ccc(C(C)C)cc2)c2ccc3cccnc3c2O)c1 (stereo not shown) [4896-3249]
SH-SY5Y cells [2]; Homo sapiens, SH-SY5Y, 3 μM, insult alone 70%, MTT after 24 h recovery, read-out: Cell viability after OGD
  viability at 3 µM: 90%
SH-SY5Y cell line; [5]
  Downregulated genes in common with 570-0720: 231 genes
  Downregulated genes in common with DMOG: 52 genes
  Downregulated genes in common with FG (roxadustat): 73 genes
  Upregulated genes in common with 570-0720: 524 genes
  Upregulated genes in common with DMOG: 188 genes
  Upregulated genes in common with FG (roxadustat): 257 genes
  Number of downregulated genes: 386 genes
  Number of upregulated genes: 1092 genes
  Downregulated genes in common with hypoxia: 31 genes
  Upregulated genes in common with hypoxia: 152 genes
SH-SY5Y cell line; 5 h treatment
  Suppression of ATF4 signaling pathway: inhibits several pro-death pathways with ATF4 being one of them; also recorded: enhanced suppression
[1]; Homo sapiens, 3 h
  IC50: 1000 nM
[1]
  Potency in HIF1 ODD-luc reporter assay (in words, comparative): equally active

## Cc1ccc2ccc(C(Nc3ccccn3)c3ccc(C(C)C)cc3)c(O)c2n1 (stereo not shown) [5704-0720]
SH-SY5Y cell line; 2 μM, 5 h
  Reduction in number of genes overlapped with roxadustat in comparison to isopropyl-neuradapt: ~20%
SH-SY5Y cell line; [5]
  Downregulated genes in common with DMOG: 38 genes
  Downregulated genes in common with FG (roxadustat): 60 genes
  Upregulated genes in common with DMOG: 126 genes
  Upregulated genes in common with FG (roxadustat): 195 genes
  Number of downregulated genes: 200–260 genes
  Number of upregulated genes: 600–700 genes
  Downregulated genes in common with hypoxia: 17 genes
  Upregulated genes in common with hypoxia: 86 genes
SH-SY5Y cell line; [6]
  Number of downregulated genes: 259 genes
  Number of upregulated genes: 600 genes
SH-SY5Y cell line; 5 h treatment
  Suppression of ATF4 signaling pathway: no suppression; also recorded: inactive
[1]; Homo sapiens, 3 h
  IC50: 2000 nM
[1]
  Potency in HIF1 ODD-luc reporter assay (in words, comparative): ca. two-fold less potent

## COC(=O)CNC(=O)C(=O)OC [DMOG, dimethyl oxalylglycine, reference compound]
SH-SY5Y cell line; 5 h treatment
  Overlap of downregulated genes for the couple roxadustat and DMOG: 80%
  Share of downregulated genes overlapping with hypoxia: ~50%
  Share of upregulated genes overlapping with those induced by hypoxia: More than 30%
  Suppression of ATF4 signaling pathway: weaker
SH-SY5Y cell line; [5]
  Downregulated genes in common with FG (roxadustat): 160 genes
  Upregulated genes in common with FG (roxadustat): 476 genes
  Number of downregulated genes: 200–260 genes and 204 genes
  Number of upregulated genes: 600–700 genes and 608 genes
  Downregulated genes in common with hypoxia: 104 genes
  Upregulated genes in common with hypoxia: 279 genes
[1]
  Potency in HIF1 ODD-luc reporter assay (in words, comparative): millimolar potency
  IC50: 500000 nM

## Oc1cccnc1NC(c1ccc(Cl)cc1)c1ccc2cccnc2c1O (stereo not shown) [adaptaquin, reference compound]
SH-SY5Y cells [2]; 1–3 μM
  Neuroprotection in OGD: 20–30%

## Cc1cc(C2CCCCC2)n(O)c(=O)c1 [ciclopirox]
[3]
  Kd: 50 nM

## Cc1ccc2ccc(C(Nc3ccccn3)c3ccc(C(C)C)cc3)c(O)c2n1 (stereo not shown) [compound 7]
SH-SY5Y cells [4]
  Toxicity at prolonged incubation: least toxic

## Cc1ccnc(NC(c2ccc(C(C)(C)C)cc2)c2cc(Cl)c3cccnc3c2O)c1 (stereo not shown) [compound 8]
SH-SY5Y cells [4]
  Toxicity at prolonged incubation: least toxic

## Cc1nc(C(=O)NCC(=O)O)c(O)c2ccc(Oc3ccccc3)cc12 [roxadustat, reference compound]
SH-SY5Y cell line; 5 h treatment
  Overlap of downregulated genes for the couple roxadustat and DMOG: 80%
  Share of downregulated genes overlapping with hypoxia: ~50%
  Share of upregulated genes overlapping with those induced by hypoxia: More than 30%
  Suppression of ATF4 signaling pathway: weaker
SH-SY5Y cell line; [5]
  Number of downregulated genes: 200–260 genes
  Number of upregulated genes: 600–700 genes
  Downregulated genes in common with hypoxia: 96 genes
  Upregulated genes in common with hypoxia: 261 genes
SH-SY5Y cell line; [7]
  Number of downregulated genes: 209 genes
  Number of upregulated genes: 714 genes
[1]; Homo sapiens, 3 h
  IC50: > 30000 nM
[1]; listed as Roxadustat
  IC50: ~25000 nM
[1]
  IC50: 30000 nM
  Interference of free iron with reporter activation: not observed

## O=C(O)CNC(=O)c1ncc(-c2cccc(Cl)c2)cc1O [vadadustat, reference compound]
[1]; Homo sapiens, 3 h
  IC50: > 30000 nM
